Results reported in patent US20150141381A1, “TETRACYCLINE COMPOUNDS HAVING TARGET THERAPEUTIC ACTIVITIES” (Paratek Pharmaceuticals, Inc., priority 2001, published 2015).
Read-outs that look alike come from different tables or passages of the source.

What was measured:
E. coli mL308 225 = test: In Vitro Anti-Bacterial Activity Assay (MIC), gram negative; assay type: cell-based; settings: Escherichia coli, ML308225, 18 h
S. aureus RN450 = test: In Vitro Anti-Bacterial Activity Assay (MIC), gram positive; assay type: cell-based; settings: Staphylococcus aureus, RN450, 18 h
[1] = MIC class, Table 3, read-out: Antibiotic Activity Gram −
[2] = MIC class, Table 3, read-out: Antibiotic Activity Gram +
[3] = MIC class, Table 3 (Continued), read-out: Gram− activity
[4] = MIC class, Table 3 (Continued), read-out: Gram+ activity
[5] = gram negative bacteria, read-out: Antibiotic Activity Gram − (MIC)
[6] = gram positive bacteria, read-out: Antibiotic Activity Gram + (MIC)

| Structure (SMILES) | MIC (E. coli mL308 225; [1]) | MIC (S. aureus RN450; [2]) | MIC (E. coli mL308 225; [5]) | MIC (S. aureus RN450; [6]) | other results |
| --- | --- | --- | --- | --- | --- |
| CN(C)[C@@H]1C(O)=C(C(N)=O)C(=O)[C@@]2(O)C(O)=C3C(=O)c4c(O)ccc(C(=O)Cc5ccccn5)c4C[C@H]3C[C@@H]12 [EL] | < 4 µg/mL | < 4 µg/mL |  |  |  |
| CN(C)c1cc(C#CC2=CCCCC2)c(O)c2c1C[C@H]1C[C@H]3[C@H](N(C)C)C(O)=C(C(N)=O)C(=O)[C@@]3(O)C(O)=C1C2=O |  |  |  |  | MIC (E. coli mL308 225; [3]): < 4 µg/mL; MIC (S. aureus RN450; [4]): < 4 µg/mL |
| CN(C)c1cc(NC(=O)Nc2ccc(Cl)cc2[N+](=O)O)c(O)c2c1C[C@H]1C[C@H]3[C@H](N(C)C)C(O)=C(C(N)=O)C(=O)[C@@]3(O)C(O)=C1C2=O [DC] | > 4 µg/mL | < 4 µg/mL |  |  |  |
| CCN(CC)Cc1ccc(OC)c(-c2ccc(O)c3c2C[C@H]2C[C@H]4[C@@H](N(C)C)C(O)=C(C(N)=O)C(=O)[C@@]4(O)C(O)=C2C3=O)c1 [J] | < 4 µg/mL | < 4 µg/mL |  |  |  |
| Cc1cc(-c2ccc(O)c3c2C[C@H]2C[C@H]4[C@H](N(C)C)C(O)=C(C(N)=O)C(=O)[C@@]4(O)C(O)=C2C3=O)ccc1F |  |  | < 4 µg/mL | < 4 µg/mL |  |
| CN(C)c1cc(N2CCCCC2)c(O)c2c1C[C@H]1C[C@H]3[C@H](N(C)C)C(O)=C(C(N)=O)C(=O)[C@@]3(O)C(O)=C1C2=O [NK] | > 4 µg/mL | > 4 µg/mL |  |  |  |
| CNCc1cc(N(C)C)c2c(c1O)C(=O)C1=C(O)[C@]3(O)C(=O)C(C(N)=O)=C(O)[C@@H](N(C)C)[C@@H]3C[C@@H]1C2 |  |  | > 4 µg/mL | < 4 µg/mL |  |
| CN(C)[C@@H]1C(O)=C(C(N)=O)C(=O)[C@@]2(O)C(O)=C3C(=O)c4c(O)ccc(-c5cccnc5)c4C[C@H]3C[C@@H]12 |  |  | < 4 µg/mL | < 4 µg/mL |  |
| COC(=O)c1ccc(CNCc2cc(N(C)C)c3c(c2O)C(=O)C2=C(O)[C@]4(O)C(=O)C(C(N)=O)=C(O)[C@@H](N(C)C)[C@@H]4C[C@@H]2C3)cc1 |  |  | > 4 µg/mL | < 4 µg/mL |  |
| CN(C)[C@@H]1C(O)=C(C(N)=O)C(=O)[C@@]2(O)C(O)=C3C(=O)c4c(O)ccc(CCC(=O)N5CCOCC5)c4C[C@H]3C[C@@H]12 |  |  | > 4 µg/mL | < 4 µg/mL |  |
| COC(=O)c1cc(N(C)C)c2c(c1O)C(=O)C1=C(O)[C@]3(O)C(=O)C(C(N)=O)=C(O)C(N(C)C)[C@@H]3C[C@@H]1C2 (some centres unmarked) [MO] | > 4 µg/mL | > 4 µg/mL |  |  |  |
| CCONC(C)c1ccc(O)c2c1C[C@H]1C[C@H]3[C@H](N(C)C)C(O)=C(C(N)=O)C(=O)[C@@]3(O)C(O)=C1C2=O (some centres unmarked) |  |  | < 4 µg/mL | < 4 µg/mL |  |
| CC1c2ccc(-c3ccc4c(c3)OCO4)c(O)c2C(=O)C2=C(O)[C@]3(O)C(=O)C(C(N)=O)=C(O)[C@@H](N(C)C)[C@@H]3[C@@H](O)[C@@H]21 (some centres unmarked) |  |  |  |  | MIC (E. coli mL308 225; [3]): < 4 µg/mL; MIC (S. aureus RN450; [4]): < 4 µg/mL |
| Cc1csc(-c2ccc(O)c3c2C[C@H]2C[C@H]4[C@H](N(C)C)C(O)=C(C(N)=O)C(=O)[C@@]4(O)C(O)=C2C3=O)c1 |  |  |  |  | MIC (E. coli mL308 225; [3]): < 4 µg/mL; MIC (S. aureus RN450; [4]): < 4 µg/mL |
| CC(C)CNCc1ccc2c(c1O)C(=O)C1=C(O)[C@]3(O)C(=O)C(C(N)=O)=C(O)[C@@H](N(C)C)[C@@H]3[C@@H](O)[C@@H]1[C@H]2C [JH] | < 4 µg/mL | < 4 µg/mL |  |  |  |
| CN(C)c1cc(-c2ccc(F)cc2F)c(O)c2c1C[C@H]1C[C@H]3[C@H](N(C)C)C(O)=C(C(N)=O)C(=O)[C@@]3(O)C(O)=C1C2=O |  |  |  |  | MIC (E. coli mL308 225; [3]): < 4 µg/mL; MIC (S. aureus RN450; [4]): < 4 µg/mL |
| CN(C)[C@@H]1C(O)=C(C(N)=O)C(=O)[C@@]2(O)C(O)=C3C(=O)c4c(O)c(CNCC(C)(C)C)cc(-c5ccccn5)c4C[C@H]3C[C@@H]12 |  |  | > 4 µg/mL | < 4 µg/mL |  |
| COc1cccc(CNCc2cc(N(C)C)c3c(c2O)C(=O)C2=C(O)[C@]4(O)C(=O)C(C(N)=O)=C(O)[C@@H](N(C)C)[C@@H]4C[C@@H]2C3)c1 |  |  | > 4 µg/mL | < 4 µg/mL |  |
| COc1ccc(-c2ccc(O)c3c2C[C@H]2C[C@H]4[C@H](N(C)C)C(O)=C(C(N)=O)C(=O)[C@@]4(O)C(O)=C2C3=O)c(OC)c1OC [JM] | > 4 µg/mL | < 4 µg/mL |  |  |  |
| CN(C)[C@@H]1C(O)=C(C(N)=O)C(=O)[C@@]2(O)C(O)=C3C(=O)c4c(ccc(N5CCOCC5)c4O)C[C@H]3C[C@@H]12 |  |  | > 4 µg/mL | > 4 µg/mL |  |
| CCOC(=O)Nc1cc(N(C)C)c2c(c1O)C(=O)C1=C(O)[C@]3(O)C(=O)C(C(N)=O)=C(O)[C@@H](N(C)C)[C@@H]3C[C@@H]1C2 [drawing 3362] |  |  | < 4 µg/mL | < 4 µg/mL |  |
| CN1CCN(Cc2ccc(-c3ccc(O)c4c3C[C@H]3C[C@H]5[C@@H](N(C)C)C(O)=C(C(N)=O)C(=O)[C@@]5(O)C(O)=C3C4=O)o2)CC1 [LN] | < 4 µg/mL | < 4 µg/mL |  |  |  |
| CN(C)[C@@H]1C(O)=C(C(N)=O)C(=O)[C@@]2(O)C(O)=C3C(=O)c4c(O)ccc(CNCC(C)(C)C)c4C[C@H]3C[C@@H]12 |  |  | < 4 µg/mL | < 4 µg/mL |  |

| Structure (SMILES) | MIC (E. coli mL308 225; [1]) | MIC (S. aureus RN450; [2]) | MIC (E. coli mL308 225; [5]) | MIC (S. aureus RN450; [6]) | other results |
| --- | --- | --- | --- | --- | --- |
| CN(C)[C@@H]1C(O)=C(C(N)=O)C(=O)[C@@]2(O)C(O)=C3C(=O)c4c(O)ccc(CN5CCCCC5)c4C[C@H]3C[C@@H]12 [KJ] | < 4 µg/mL | < 4 µg/mL |  |  |  |
| CN(C)c1cc(CCc2ccc(F)cc2)c(O)c2c1C[C@H]1C[C@H]3[C@H](N(C)C)C(O)=C(C(N)=O)C(=O)[C@@]3(O)C(O)=C1C2=O |  |  | < 4 µg/mL | < 4 µg/mL |  |
| CN(C)c1cc(-c2cccc(N)c2)c(O)c2c1C[C@H]1C[C@H]3[C@H](N(C)C)C(O)=C(C(N)=O)C(=O)[C@@]3(O)C(O)=C1C2=O [AH] | > 4 µg/mL | < 4 µg/mL |  |  |  |
| CN(C)[C@@H]1C(O)=C(C(N)=O)C(=O)[C@@]2(O)C(O)=C3C(=O)c4c(O)ccc(-c5ccc(O)nc5)c4C[C@H]3C[C@@H]12 |  |  | < 4 µg/mL | < 4 µg/mL |  |
| CCc1ccc(O)c2c1C[C@H]1C[C@H]3[C@@H](N(C)C)C(O)=C(C(N)=O)C(=O)[C@@]3(O)C(O)=C1C2=O [DM] | > 4 µg/mL | < 4 µg/mL |  |  |  |
| C[C@H]1c2c(-c3ccccc3)cc(-c3ccccc3)c(O)c2C(=O)C2=C(O)[C@]3(O)C(=O)C(C(N)=O)=C(O)[C@@H](N(C)C)[C@@H]3[C@@H](O)[C@@H]21 |  |  | < 4 µg/mL | < 4 µg/mL |  |
| CN(C)[C@H]1C(O)=C(C(N)=O)C(=O)[C@@]2(O)C(O)=C3C(=O)c4c(O)ccc(-c5ccc(NC(=O)C6CC6)cc5)c4C[C@H]3C[C@@H]12 [GQ] | > 4 µg/mL | < 4 µg/mL |  |  |  |
| CN(C)[C@@H]1C(O)=C(C(N)=O)C(=O)[C@@]2(O)C(O)=C3C(=O)c4c(O)ccc(-c5ccc(CNC6CC6)o5)c4C[C@H]3C[C@@H]12 |  |  | < 4 µg/mL | < 4 µg/mL |  |
| CN(C)[C@@H]1C(O)=C(C(N)=O)C(=O)[C@@]2(O)C(O)=C3C(=O)c4c(O)ccc(-c5ccc(-n6cccc6)nc5)c4C[C@H]3C[C@@H]12 |  |  | < 4 µg/mL | < 4 µg/mL |  |
| CN(C)C1C(O)=C(C(N)=O)C(=O)[C@@]2(O)C(O)=C3C(=O)c4c(O)c(CN)cc(-c5ccc(C(C)(C)C)cc5)c4C[C@H]3C[C@@H]12 (some centres unmarked) [HJ] | < 4 µg/mL | < 4 µg/mL |  |  |  |
| CN(C)[C@@H]1C(O)=C(C(N)=O)C(=O)[C@@]2(O)C(O)=C3C(=O)c4c(O)ccc(/C=C/S(C)(C)C)c4C[C@H]3C[C@@H]12 |  |  |  |  | MIC (E. coli mL308 225; [3]): < 4 µg/mL; MIC (S. aureus RN450; [4]): < 4 µg/mL |
| CN(C)[C@@H]1C(O)=C(C(N)=O)C(=O)[C@@]2(O)C(O)=C3C(=O)c4c(O)ccc(-c5cnc(N)nc5)c4C[C@H]3C[C@@H]12 [PF] | < 4 µg/mL | < 4 µg/mL |  |  |  |
| CN(C)c1cc(CNc2ccccc2)c(O)c2c1C[C@H]1C[C@H]3[C@H](N(C)C)C(O)=C(C(N)=O)C(=O)[C@@]3(O)C(O)=C1C2=O |  |  | > 4 µg/mL | < 4 µg/mL |  |
| CCc1cc(N(C)C)c2c(c1O)C(=O)C1=C(O)[C@]3(O)C(=O)C(C(N)=O)=C(O)C(N(C)C)[C@@H]3C[C@@H]1C2 (some centres unmarked) [IA] | > 4 µg/mL | < 4 µg/mL |  |  |  |
| CN(C)[C@@H]1C(O)=C(C(N)=O)C(=O)[C@@]2(O)C(O)=C3C(=O)c4c(O)c(CNC5CCCC5)cc(-c5ccoc5)c4C[C@H]3C[C@@H]12 |  |  | > 4 µg/mL | < 4 µg/mL |  |
| CC(C)NCc1ccc(-c2ccc(O)c3c2C[C@H]2C[C@H]4[C@H](N(C)C)C(O)=C(C(N)=O)C(=O)[C@@]4(O)C(O)=C2C3=O)c2ccccc12 [GB] | < 4 µg/mL | < 4 µg/mL |  |  |  |
| CN(CCCC(F)(F)F)Cc1cc(N(C)C)c2c(c1O)C(=O)C1=C(O)[C@]3(O)C(=O)C(C(N)=O)=C(O)[C@@H](N(C)C)[C@@H]3C[C@@H]1C2 |  |  | < 4 µg/mL | < 4 µg/mL |  |
| C[C@H]1c2ccc(/C=C\C(=O)NC(C)(C)C)c(O)c2C(=O)C2=C(O)[C@]3(O)C(=O)C(C(N)=O)=C(O)[C@@H](N(C)C)[C@@H]3[C@@H](O)[C@@H]21 [CU] | > 4 µg/mL | > 4 µg/mL |  |  |  |
| CC(C)CN(Cc1ccc(O)c2c1C[C@H]1C[C@H]3[C@H](N(C)C)C(O)=C(C(N)=O)C(=O)[C@@]3(O)C(O)=C1C2=O)CC(C)C |  |  | < 4 µg/mL | < 4 µg/mL |  |
| CN(C)[C@@H]1C(OCc2ccccc2)=C(C(N)=O)C(=O)[C@@]2(O)C(O)=C3C(=O)c4c(cccc4OCc4ccccc4)C[C@H]3C[C@@H]12 [OJ] | > 4 µg/mL | > 4 µg/mL |  |  |  |
| CCC(CC)c1ccc(CCc2ccc(O)c3c2C[C@H]2C[C@H]4[C@H](N(C)C)C(O)=C(C(N)=O)C(=O)[C@@]4(O)C(O)=C2C3=O)cc1 |  |  |  |  | MIC (E. coli mL308 225; [3]): < 4 µg/mL; MIC (S. aureus RN450; [4]): < 4 µg/mL |
| CN(C)c1cc(C#Cc2ccccn2)c(O)c2c1C[C@H]1C[C@H]3[C@H](N(C)C)C(O)=C(C(N)=O)C(=O)[C@@]3(O)C(O)=C1C2=O [BA] | > 4 µg/mL | > 4 µg/mL |  |  |  |
| C[C@H]1c2ccc(CNCC(C)(C)C)c(O)c2C(=O)C2=C(O)[C@]3(O)C(=O)C(C(N)=O)=C(O)[C@@H](N(C)C)[C@@H]3[C@@H](O)[C@@H]21 [drawing 3661] |  |  | > 4 µg/mL | > 4 µg/mL |  |
